This test has as its system MCH receptors. As to the kind of experiment: MCH receptor activity class (method not given).
The mark [1] stands for this setting: class by percent of control at 10^-7 M or IC50.
Where [2] appears, read: class by percent of control at 10^−7 M or IC50.
[3] abbreviates: MCH receptor, class by percent of control at 10^-7 M or IC50.
Where [4] appears, read: class 1-3 by percent of control at 10^-7 M or IC50.
[5] abbreviates: activity class per percent of control at 10^-7 M or IC50.
The mark [6] stands for this setting: activity class 1-3: percent of control at 10^-7 M or IC50.
The mark [7] stands for this setting: MCH receptor activity class 1-3 (percent of control at 10^-7 M or IC50).

Like-named read-outs stand apart in the source and are kept apart here.

For the compound `CN(C)c1nc(N[C@H]2CC[C@@H](NC(=O)Nc3ccc(F)c(C(F)(F)F)c3)CC2)nc2c1CCCC2` [compound 1890], under setting [1], the class is 3 (Class 3 The value of percent of control at 10^−7 M was more than 60% or the value of IC50 was more than 200 nM.).

Consider `CCc1ccc(C(=O)N[C@H]2CC[C@@H](Nc3nc(C)cc(N(C)C)n3)CC2)cc1` [compound 2974, N-(cis-4-{[4-(dimethylamino)-6-methylpyrimidin-2-yl]amino}cyclohexyl)-4-ethylbenzamide], for which the class under setting [2] is given as 2 (Class 2: The value of percent of control at 10^−7 M was from 40% to 60% or the value of IC′50 was from 50 nM to 200 nM.).

In the case of `CN(C)c1nc(N[C@H]2CC[C@@H](NC(=S)NC3CC4CCC3C4)CC2)nc2c1CCCC2` (some centres unmarked) [compound 1995], under setting [3], the class is reported as 3 (Class 3 The value of percent of control at 10^−7 M was more than 60% or the value of IC50 was more than 200 nM.).

On to `Cc1cnc(NC[C@H]2CC[C@@H](NC(=O)c3ccccc3)CC2)nc1N(C)C` [compound 2712, N-[cis-4-({[4-(dimethylamino)-5-methylpyrimidin-2-yl]amino}methyl)cyclohexyl]benzamide], for which, under setting [2], the class is 3 (Class 3 The value of percent of control at 10^−7 M was more than 60% or the value of IC50 was more than 200 nM.).

For `CN(C)c1nc(N[C@H]2CC[C@@H](NC(=O)c3cccc(C(F)(F)F)c3)CC2)nc2c1CCCC2` [compound 552], the class under setting [4] is 1 (Class 1: The value of percent of control at 10^−7 M was less than 40% or the value of IC50 was less than 50 nM.).

For the compound `Cc1cnc(N[C@H]2CC[C@@H](NC(=O)CN(C)c3ccc(F)c(F)c3)CC2)nc1N(C)C` [compound 2946], the class under setting [2] is 1 (Class 1: The value of percent of control at 10^−7 M was less than 40% or the value of IC50 was less than 50 nM.).

Take `COc1cccc(OC)c1CN[C@H]1CC[C@@H](Nc2nc3c(c(N(C)C)n2)CCCC3)CC1` [compound 1326]: under setting [1], the class was 3 (Class 3 The value of percent of control at 10^−7 M was more than 60% or the value of IC50 was more than 200 nM.).

As for `COC(C(=O)N[C@H]1CC[C@@H](Nc2nc3c(c(N(C)C)n2)CCCC3)CC1)c1ccccc1` (relative stereo) [compound 1052], under setting [5], the class is recorded as 2 (Class 2: The value of percent of control at 10^−7 M was from 40% to 60% or the value of IC′50 was from 50 nM to 200 nM.).

On to `CC(Oc1ccccc1)C(=O)N[C@H]1CC[C@@H](Nc2nccc(N(C)C)n2)CC1` (relative stereo) [compound 267], for which the class under setting [1] is reported as 3 (Class 3 The value of percent of control at 10^−7 M was more than 60% or the value of IC50 was more than 200 nM.).

For the compound `CN(C)c1nc(N[C@H]2CC[C@@H](NC(=O)c3cccc(F)c3)CC2)nc2c1CCCC2` [compound 541], the class under setting [4] was 1 (Class 1: The value of percent of control at 10^−7 M was less than 40% or the value of IC50 was less than 50 nM.).

Take `CN(C)c1ccnc(N[C@H]2CC[C@@H](NC(=O)Nc3ccc(Br)cc3C(F)(F)F)CC2)n1` [compound 2242]: under setting [1], the class was 3 (Class 3 The value of percent of control at 10^−7 M was more than 60% or the value of IC50 was more than 200 nM.).

In the case of `COc1ccccc1CCNC[C@H]1CC[C@@H](Nc2cc(N(C)C)c3ccccc3n2)CC1` [compound 1470], the class under setting [1] is 3 (Class 3 The value of percent of control at 10^−7 M was more than 60% or the value of IC50 was more than 200 nM.).

Take `CN(C)c1nc(N[C@H]2CC[C@@H](NC(=O)c3csc([N+](=O)[O-])c3)CC2)nc2c1CCCC2` [compound 1043]: the class under setting [5] is on record as 1 (Class 1: The value of percent of control at 10^−7 M was less than 40% or the value of IC50 was less than 50 nM.).

With `COc1ccc(CNC[C@H]2CC[C@@H](Nc3cc(N(C)C)c4ccccc4n3)CC2)cc1` [compound 1141], under setting [5], the class was 3 (Class 3 The value of percent of control at 10^−7 M was more than 60% or the value of IC50 was more than 200 nM.).

For the compound `COc1cccc([C@H](C)NC(=O)[C@H]2CC[C@@H](Nc3ncc(C)c(N(C)C)n3)CC2)c1` [compound 2776, cis-4-{[4-(dimethylamino)-5-methylpyrimidin-2-yl]amino}-N-[(1S)-1-(3-methoxyphenyl)ethyl]cyclohexanecarboxamide], the class under setting [2] is recorded as 1 (Class 1: The value of percent of control at 10^−7 M was less than 40% or the value of IC50 was less than 50 nM.).

As for `COc1ccc2[nH]c(C)c(CC(=O)NC[C@H]3CC[C@@H](Nc4nccc(N(C)C)n4)CC3)c2c1` [compound 933], the class under setting [1] was 3 (Class 3 The value of percent of control at 10^−7 M was more than 60% or the value of IC50 was more than 200 nM.).

Take `CN(C)c1nc(N[C@H]2CC[C@@H](NC(=O)Nc3cccc([N+](=O)[O-])c3)CC2)nc2c1CCCC2` [compound 1874]: under setting [1], the class was 3 (Class 3 The value of percent of control at 10^−7 M was more than 60% or the value of IC50 was more than 200 nM.).

In the case of `CN(C)c1nc(N[C@H]2CC[C@@H](NC(=O)c3ccc(Cl)c([N+](=O)[O-])c3)CC2)nc2c1CCCC2` [compound 463], the class under setting [4] was 1 (Class 1: The value of percent of control at 10^−7 M was less than 40% or the value of IC50 was less than 50 nM.).

With `COc1cc(OC)c(OC)cc1CNC[C@H]1CC[C@@H](Nc2nccc(N(C)C)n2)CC1` [compound 1296], the class under setting [1] is 2 (Class 2: The value of percent of control at 10^−7 M was from 40% to 60% or the value of IC′50 was from 50 nM to 200 nM.).

Regarding `Cc1ccc2occ(CN[C@H]3CC[C@@H](Nc4nccc(N(C)C)n4)CC3)c(=O)c2c1` [compound 1227, 3-{[(cis-4-{[4-(dimethylamino)pyrimidin-2-yl]amino}-cylohexyl}-amino]methyl}-6-methyl-4H-chromen-4-one], under setting [1], the class was 3 (Class 3 The value of percent of control at 10^−7 M was more than 60% or the value of IC50 was more than 200 nM.).

For the compound `Cc1cccc(C(C)C)c1NC(=O)N[C@H]1CC[C@@H](Nc2nc3c(c(N(C)C)n2)CCCC3)CC1` [compound 1679], the class under setting [6] was 2 (Class 2: The value of percent of control at 10^−7 M was from 40% to 60% or the value of IC′50 was from 50 nM to 200 nM.).

On to `Cc1cc(N(C)C)nc(N[C@H]2CC[C@@H](NC(=O)c3ccccc3)CC2)n1` [compound 2951, N-(cis-4-{[4-(dimethylamino)-6-methylpyrimidin-2-yl]amino}cyclohexyl)benzamide], for which, under setting [2], the class is 3 (Class 3 The value of percent of control at 10^−7 M was more than 60% or the value of IC50 was more than 200 nM.).

In the case of `CN(C)c1ccnc(N[C@H]2CC[C@@H](CNC(=O)c3cccc(Br)c3)CC2)n1` [compound 366], under setting [1], the class is listed as 3 (Class 3 The value of percent of control at 10^−7 M was more than 60% or the value of IC50 was more than 200 nM.).

For the compound `CN(C)c1nc(N[C@H]2CC[C@@H](NC(=O)Nc3ccc(Cc4ccccc4)cc3)CC2)nc2c1CCCC2` [compound 1882], the class under setting [1] was 3 (Class 3 The value of percent of control at 10^−7 M was more than 60% or the value of IC50 was more than 200 nM.).

Turning to `Cc1cc(N(C)C)nc(N[C@H]2CC[C@@H](C(=O)NCc3ccccc3OC(F)(F)F)CC2)n1` [Example 2587, cis-4-{[4-(dimethylamino)-6-methylpyrimidin-2-yl]amino}-N-[2-(trifluoromethoxy)benzyl]cyclohexanecarboxamide], the class came to 1.

For `CCOc1cccc(C(=O)N[C@H]2CC[C@@H](Nc3ncc(C)c(N(C)C)n3)CC2)c1` [compound 2927, N-(cis-4-{[4-(dimethylamino)-5-methylpyrimidin-2-yl]amino}cyclohexyl)-3-ethoxybenzamide], under setting [2], the class is given as 2 (Class 2: The value of percent of control at 10^−7 M was from 40% to 60% or the value of IC′50 was from 50 nM to 200 nM.).

In the case of `CN(C)c1nc(N[C@H]2CC[C@@H](NC(=O)Nc3cccc(F)c3)CC2)nc2c1CCCC2` [compound 1827], the class under setting [1] is 3 (Class 3 The value of percent of control at 10^−7 M was more than 60% or the value of IC50 was more than 200 nM.).

As for `Cc1cc(Cl)cc(Cl)c1NC(=S)N[C@H]1CC[C@@H](Nc2cc(N(C)C)c3ccccc3n2)CC1` [compound 2301, N-(2,4-dichloro-6-methylphenyl)-N′-(cis-4-{[4-(dimethylamino)quinolin-2-yl]amino}cyclohexyl)thiourea], the class under setting [7] is 1 (Class 1: The value of percent of control at 10^−7 M was less than 40% or the value of IC50 was less than 50 nM.).

In the case of `CN(C)c1nc(N[C@H]2CC[C@@H](CNC(=O)Nc3ccccc3I)CC2)nc2c1CCCC2` [compound 2470], the class under setting [7] is reported as 3 (Class 3 The value of percent of control at 10^−7 M was more than 60% or the value of IC50 was more than 200 nM.).

With `COc1cc(NC(=S)N[C@H]2CC[C@@H](Nc3cc(N(C)C)c4ccccc4n3)CC2)c(OC)cc1Cl` [compound 2308], under setting [7], the class is reported as 3 (Class 3 The value of percent of control at 10^−7 M was more than 60% or the value of IC50 was more than 200 nM.).

Take `COc1ccc2[nH]c(C)c(CC(=O)N[C@H]3CC[C@@H](Nc4nccc(N(C)C)n4)CC3)c2c1` [compound 821]: the class under setting [1] is 3 (Class 3 The value of percent of control at 10^−7 M was more than 60% or the value of IC50 was more than 200 nM.).

Consider `CN(C)c1ccnc(N[C@H]2CC[C@@H](CNCCCOc3ccccc3)CC2)n1` [compound 1532], for which the class under setting [6] is on record as 3 (Class 3 The value of percent of control at 10^−7 M was more than 60% or the value of IC50 was more than 200 nM.).

As for `C/C(=C\c1ccccc1)C(=O)NC[C@H]1CC[C@@H](Nc2nc3c(c(N(C)C)n2)CCCC3)CC1` [compound 649], the class under setting [1] is reported as 3 (Class 3 The value of percent of control at 10^−7 M was more than 60% or the value of IC50 was more than 200 nM.).

`CN(C)c1cc(N[C@H]2CC[C@@H](NC(=O)c3cccc(Cl)c3)CC2)nc2ccccc12` [compound 24]: the class under setting [3] was 1 (Class 1: The value of percent of control at 10^−7 M was less than 40% or the value of IC50 was less than 50 nM.).

For `CN(C)c1cc(N[C@H]2CC[C@@H](NC(=O)c3cccc(C#N)c3)CC2)nc2ccccc12` [compound 29], the class under setting [3] was 2 (Class 2: The value of percent of control at 10^−7 M was from 40% to 60% or the value of IC′50 was from 50 nM to 200 nM.).

Source of the values: US20050197350A1, “Novel quinoline, tetrahydroquinazoline, and pyrimidine derivatives and methods of treatment related to the use thereof” (TAISHO PHARMACEUTICAL CO., LTD., priority 2003, published 2005).
